Measured values as given in ChEMBL document CHEMBL1201862, “PubChem BioAssay data set” (2004).
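Cultured in 96-well plates, cells were exposed to test compound for 48 hours across five concentrations. Here, GI50 denotes the concentration required for 50% inhibition of growth.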 Calls of active or inactive are those of the source. Rule as the data show it: active = GI50 up to about 1.1 µM and inactive = higher.

Experiments:
Experiment in all cases: NCI anticancer screen, dose series, 48 h
[1] = tested on: 786-0
[2] = tested on: DU-145
[3] = tested on: HCT-116
[4] = tested on: HOP-62
[5] = tested on: HOP-92
[6] = tested on: Hs-578T
[7] = tested on: K562
[8] = tested on: MCF7
[9] = tested on: MDA-N
[10] = tested on: SK-MEL-5
[11] = tested on: SK-OV-3
[12] = tested on: SN12C
[13] = tested on: SNB-19
[14] = tested on: SR
[15] = tested on: U-251
[16] = tested on: UACC-257
[17] = tested on: UACC-62
[18] = tested on: CAKI-1
[19] = tested on: SK-MEL-2
[20] = tested on: TK-10

With `O=c1cc(-c2ccccc2)[nH]c2cccc(S)c12` the GI50 [1] was 0.301 µM (active), the GI50 [2] was 0.393 µM (active) and the GI50 [3] was 0.0867 µM (active). For the same compound, the GI50 [4] was 0.331 µM (active), the GI50 [5] was 0.288 µM (active) and the GI50 [6] was 0.205 µM (active). For the same compound, the GI50 [7] was 0.0588 µM (active), the GI50 [8] was 0.465 µM (active) and the GI50 [9] was 0.0246 µM (active). For the same compound, the GI50 [10] was 0.0944 µM (active), the GI50 [11] was 0.119 µM (active) and the GI50 [12] was 0.462 µM (active). The GI50 [13] was 0.375 µM (active), the GI50 [14] was 0.172 µM (active) and the GI50 [15] was 0.182 µM (active). For the same compound, the GI50 [16] was 0.0762 µM (active) and the GI50 [17] was 0.155 µM (active).

In the case of `CN(C)c1ccc2c3c(c(=O)oc2c1)CCC3`, the GI50 [1] is reported as 58.6 µM (inactive), the GI50 [18] is reported as 43.8 µM (inactive) and the GI50 [2] is reported as 80.4 µM (inactive). For the same compound, the GI50 [3] was 60.8 µM (inactive), the GI50 [4] was 44 µM (inactive) and the GI50 [5] was 38.7 µM (inactive). The GI50 [6] was 36.8 µM (inactive), the GI50 [7] was 69.3 µM (inactive) and the GI50 [8] was 28.2 µM (inactive). For the same compound, the GI50 [9] was 97.9 µM (inactive), the GI50 [19] was > 100 µM (inactive) and the GI50 [10] was 36.8 µM (inactive). For the same compound, the GI50 [12] was > 100 µM (inactive), the GI50 [13] was > 100 µM (inactive) and the GI50 [14] was 42.6 µM (inactive). For the same compound, the GI50 [20] was 65.3 µM (inactive), the GI50 [15] was 88.3 µM (inactive) and the GI50 [16] was 82.8 µM (inactive). For the same compound, the GI50 [17] was 29.4 µM (inactive).

`COC(=O)[C@@]1(Cc2ccc(OC(C)=O)cc2)Cc2cc3ccccc3n2N1` was tested, and the GI50 [1] was 33.7 µM (inactive), the GI50 [18] was > 100 µM (inactive) and the GI50 [2] was 62.4 µM (inactive). The GI50 [3] was 35 µM (inactive), the GI50 [4] was > 100 µM (inactive) and the GI50 [5] was 75 µM (inactive). For the same compound, the GI50 [6] was 82.8 µM (inactive), the GI50 [8] was 29.9 µM (inactive) and the GI50 [9] was 26.5 µM (inactive). The GI50 [19] was 18.2 µM (inactive), the GI50 [10] was 18.2 µM (inactive) and the GI50 [11] was > 100 µM (inactive). For the same compound, the GI50 [12] was 29.6 µM (inactive), the GI50 [13] was 93.8 µM (inactive) and the GI50 [14] was 13.5 µM (inactive). For the same compound, the GI50 [20] was 33.7 µM (inactive), the GI50 [15] was 30.1 µM (inactive) and the GI50 [16] was 17.3 µM (inactive). For the same compound, the GI50 [17] was 57.4 µM (inactive).

For `Cc1cc(NS(=O)(=O)c2ccc(Nc3c4ccccc4nc4c(C(=O)NCCO)cccc34)cc2)no1`, the GI50 [1] was 30.8 µM (inactive), the GI50 [18] was 26.1 µM (inactive) and the GI50 [2] was 34.7 µM (inactive). The GI50 [4] was 32.9 µM (inactive), the GI50 [5] was 20.5 µM (inactive) and the GI50 [6] was 21.2 µM (inactive). For the same compound, the GI50 [7] was 26.3 µM (inactive), the GI50 [8] was 14.9 µM (inactive) and the GI50 [9] was 35.8 µM (inactive). The GI50 [19] was 22.2 µM (inactive), the GI50 [10] was 23.4 µM (inactive) and the GI50 [11] was 35.6 µM (inactive). For the same compound, the GI50 [12] was 32.7 µM (inactive), the GI50 [13] was 37.4 µM (inactive) and the GI50 [14] was 22.5 µM (inactive). The GI50 [20] was 35.6 µM (inactive), the GI50 [15] was 27.7 µM (inactive) and the GI50 [16] was 75.3 µM (inactive). The GI50 [17] was 20.2 µM (inactive).

`O=C1NC(NNc2ccccc2)=N/C1=C\c1ccccc1O` was tested, and the GI50 [1] was 62.5 µM (inactive), the GI50 [18] was 63.1 µM (inactive) and the GI50 [2] was 67 µM (inactive). For the same compound, the GI50 [3] was 48.2 µM (inactive), the GI50 [4] was 48.4 µM (inactive) and the GI50 [5] was 55 µM (inactive). For the same compound, the GI50 [6] was > 100 µM (inactive), the GI50 [7] was 50.2 µM (inactive) and the GI50 [8] was 40.4 µM (inactive). For the same compound, the GI50 [9] was 71.3 µM (inactive), the GI50 [19] was 75.2 µM (inactive) and the GI50 [11] was > 100 µM (inactive). The GI50 [12] was 73.6 µM (inactive), the GI50 [13] was > 100 µM (inactive) and the GI50 [14] was > 100 µM (inactive). The GI50 [20] was 67.3 µM (inactive), the GI50 [15] was 70.5 µM (inactive) and the GI50 [16] was 40.9 µM (inactive). For the same compound, the GI50 [17] was 53.3 µM (inactive).

`Cc1ccc2c(c1)CC1(C2)Cc2ccc(C)cc2C1=O` (stereo unspecified) was tested, and the GI50 [1] was 16.8 µM (inactive), the GI50 [18] was 18.5 µM (inactive) and the GI50 [2] was 31.9 µM (inactive). For the same compound, the GI50 [3] was 21.2 µM (inactive), the GI50 [4] was 28 µM (inactive) and the GI50 [5] was 19.5 µM (inactive). The GI50 [6] was 20.7 µM (inactive), the GI50 [7] was 22.8 µM (inactive) and the GI50 [8] was 24.7 µM (inactive). For the same compound, the GI50 [9] was 7.35 µM (inactive), the GI50 [19] was 19.9 µM (inactive) and the GI50 [10] was 13 µM (inactive). The GI50 [11] was 59.3 µM (inactive), the GI50 [12] was 24.8 µM (inactive) and the GI50 [13] was 61.4 µM (inactive). The GI50 [14] was 12.6 µM (inactive), the GI50 [20] was 31.2 µM (inactive) and the GI50 [15] was 37 µM (inactive). The GI50 [16] was 18.9 µM (inactive).

In the case of `CN(C(=O)C1=CCCCCC1)c1ccccc1I`, the GI50 [1] is reported as 27.8 µM (inactive), the GI50 [18] is reported as 64.4 µM (inactive) and the GI50 [2] is reported as 50.7 µM (inactive). For the same compound, the GI50 [3] was 25.9 µM (inactive), the GI50 [4] was 63.4 µM (inactive) and the GI50 [5] was > 10 µM (inactive). The GI50 [6] was 1.27 µM (inactive), the GI50 [7] was 59.2 µM (inactive) and the GI50 [8] was 51.5 µM (inactive). For the same compound, the GI50 [9] was 35.5 µM (inactive), the GI50 [19] was 32.4 µM (inactive) and the GI50 [10] was 23.6 µM (inactive). For the same compound, the GI50 [11] was 43.5 µM (inactive), the GI50 [12] was 49.1 µM (inactive) and the GI50 [13] was 62.5 µM (inactive). The GI50 [14] was 39 µM (inactive), the GI50 [15] was 44.9 µM (inactive) and the GI50 [16] was 44.6 µM (inactive). For the same compound, the GI50 [17] was 33.2 µM (inactive).
